Where a name gives a salt, the structure may show the parent alone.
Assays:
Type in all cases: cell-based
[1] = system: Acinetobacter baumannii XNWB 0007; test: MIC assay of test compounds combined with ceftazidime (8 μg/mL); settings: ceftazidime 8 μg/mL fixed
How it was run: (§1)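 Colonies from 20-24 h TSA plates (35±2 °C) → saline, OD600 0.1-0.15 → 300-fold dilution in 1.1×CAMHB → added to compound plus fixed antibiotic wells, growth and sterility controls included → 16-20 h at 35±2 °C → MIC by CLSI criteria.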

[2] = system: Klebsiella pneumoniae XNWB 0001; test: as above; settings: ceftazidime 8 μg/mL fixed
How it was run: as §1

[3] = system: Klebsiella pneumoniae XNWB 0002; test: as above; settings: ceftazidime 8 μg/mL fixed
How it was run: as §1

[4] = system: Klebsiella pneumoniae XNWB 0003; test: as above; settings: ceftazidime 8 μg/mL fixed
How it was run: as §1

[5] = system: Klebsiella pneumoniae XNWB 0004; test: as above; settings: ceftazidime 8 μg/mL fixed
How it was run: as §1

[6] = system: Klebsiella pneumoniae XNWB 0005; test: as above; settings: ceftazidime 8 μg/mL fixed
How it was run: as §1

[7] = system: Klebsiella pneumoniae XNWB 0006; test: as above; settings: ceftazidime 8 μg/mL fixed
How it was run: as §1

[8] = system: Pseudomonas aeruginosa XNWB 0008; test: as above; settings: ceftazidime 8 μg/mL fixed
How it was run: as §1

[9] = system: Acinetobacter baumannii XNWB 0007; test: MIC assay of test compounds combined with imipenem (4 μg/mL); settings: imipenem 4 μg/mL fixed
How it was run: as §1

[10] = system: Klebsiella pneumoniae XNWB 0001; test: as above; settings: imipenem 4 μg/mL fixed
How it was run: as §1

[11] = system: Klebsiella pneumoniae XNWB 0002; test: as above; settings: imipenem 4 μg/mL fixed
How it was run: as §1

[12] = system: Klebsiella pneumoniae XNWB 0003; test: as above; settings: imipenem 4 μg/mL fixed
How it was run: as §1

[13] = system: Klebsiella pneumoniae XNWB 0004; test: as above; settings: imipenem 4 μg/mL fixed
How it was run: as §1

[14] = system: Klebsiella pneumoniae XNWB 0005; test: as above; settings: imipenem 4 μg/mL fixed
How it was run: as §1

[15] = system: Klebsiella pneumoniae XNWB 0006; test: as above; settings: imipenem 4 μg/mL fixed
How it was run: as §1

[16] = system: Pseudomonas aeruginosa XNWB 0008; test: as above; settings: imipenem 4 μg/mL fixed
How it was run: as §1

**Q.** How did the “The minimum concentration of test compounds combined with ceftazidime (8 μg/mL) for bacteriostasis” value [1] turn out when `CN(CCc1cc([C@@H]2CC3(CC3)[C@@H]3CN2C(=O)N3OS(=O)(=O)O)no1)C(=N)N` [Example 37, (1R,4S)-4-(5-(2-(1-methylguanidino)ethyl)isoxazol-3-yl)-6-oxo-5,7-diazaspiro[bicycle [3.2.1]octane-2,1′-cyclopropan]-7-yl sulfate] was run?
**A.** Its value is “C (C: 16-128 μg/mL)”.

**Q.** And the “The minimum concentration of test compounds combined with ceftazidime (8 μg/mL) for bacteriostasis” value [2]?
**A.** Its value is “A (A: <8 μg/mL)”.

**Q.** And the “The minimum concentration of test compounds combined with ceftazidime (8 μg/mL) for bacteriostasis” value [3]?
**A.** The value was “A (A: <8 μg/mL)”.

**Q.** What about the “The minimum concentration of test compounds combined with ceftazidime (8 μg/mL) for bacteriostasis” value [4] of the same compound?
**A.** The value was “B (B: 8-16 μg/mL)”.

**Q.** And the “The minimum concentration of test compounds combined with ceftazidime (8 μg/mL) for bacteriostasis” value [5]?
**A.** The value was “B (B: 8-16 μg/mL)”.

**Q.** What about the “The minimum concentration of test compounds combined with ceftazidime (8 μg/mL) for bacteriostasis” value [6] of the same compound?
**A.** Its value is “A (A: <8 μg/mL)”.

**Q.** What about the “The minimum concentration of test compounds combined with ceftazidime (8 μg/mL) for bacteriostasis” value [7] of the same compound?
**A.** The value was “A (A: <8 μg/mL)”.

**Q.** What about the “The minimum concentration of test compounds combined with ceftazidime (8 μg/mL) for bacteriostasis” value [8] of the same compound?
**A.** The value was “C (C: 16-128 μg/mL)”.

**Q.** What about the “The minimum concentration of test compounds combined with imipenem (4 μg/mL) for bacteriostasis” value [9] of the same compound?
**A.** Its value is “C (C: 16-128 μg/mL)”.

**Q.** And the “The minimum concentration of test compounds combined with imipenem (4 μg/mL) for bacteriostasis” value [10]?
**A.** Its value is “A (A: <8 μg/mL)”.

**Q.** And the “The minimum concentration of test compounds combined with imipenem (4 μg/mL) for bacteriostasis” value [11]?
**A.** The value was “A (A: <8 μg/mL)”.

**Q.** And the “The minimum concentration of test compounds combined with imipenem (4 μg/mL) for bacteriostasis” value [12]?
**A.** The value was “A (A: <8 μg/mL)”.

**Q.** What about the “The minimum concentration of test compounds combined with imipenem (4 μg/mL) for bacteriostasis” value [13] of the same compound?
**A.** The value was “A (A: <8 μg/mL)”.

**Q.** And the “The minimum concentration of test compounds combined with imipenem (4 μg/mL) for bacteriostasis” value [14]?
**A.** Its value is “A (A: <8 μg/mL)”.

**Q.** And the “The minimum concentration of test compounds combined with imipenem (4 μg/mL) for bacteriostasis” value [15]?
**A.** The value was “A (A: <8 μg/mL)”.

**Q.** What about the “The minimum concentration of test compounds combined with imipenem (4 μg/mL) for bacteriostasis” value [16] of the same compound?
**A.** Its value is “B (B: 8-16 μg/mL)”.

**Q.** With `N=C(N)NCC(O)c1cc([C@@H]2CC3(CC3)[C@@H]3CN2C(=O)N3OS(=O)(=O)O)no1` (stereo partly drawn) [Example 38, (1R,4S)-4-(5-(2-guanidyl-1-hydroxyethyl)isoxazol-3-yl)-6-oxo-5,7-diazaspiro[bicycle [3.2.1]octane-2,1′-cyclopropan]-7-yl sulfate] as the compound, how does the “The minimum concentration of test compounds combined with ceftazidime (8 μg/mL) for bacteriostasis” value [1] read?
**A.** Its value is “C (C: 16-128 μg/mL)”.

**Q.** What about the “The minimum concentration of test compounds combined with ceftazidime (8 μg/mL) for bacteriostasis” value [2] of the same compound?
**A.** Its value is “A (A: <8 μg/mL)”.

**Q.** What about the “The minimum concentration of test compounds combined with ceftazidime (8 μg/mL) for bacteriostasis” value [3] of the same compound?
**A.** The value was “A (A: <8 μg/mL)”.

**Q.** What about the “The minimum concentration of test compounds combined with ceftazidime (8 μg/mL) for bacteriostasis” value [4] of the same compound?
**A.** The value was “A (A: <8 μg/mL)”.

**Q.** What about the “The minimum concentration of test compounds combined with ceftazidime (8 μg/mL) for bacteriostasis” value [5] of the same compound?
**A.** Its value is “A (A: <8 μg/mL)”.

**Q.** And the “The minimum concentration of test compounds combined with ceftazidime (8 μg/mL) for bacteriostasis” value [6]?
**A.** Its value is “A (A: <8 μg/mL)”.

**Q.** And the “The minimum concentration of test compounds combined with ceftazidime (8 μg/mL) for bacteriostasis” value [7]?
**A.** Its value is “A (A: <8 μg/mL)”.

**Q.** And the “The minimum concentration of test compounds combined with ceftazidime (8 μg/mL) for bacteriostasis” value [8]?
**A.** The value was “B (B: 8-16 μg/mL)”.

**Q.** And the “The minimum concentration of test compounds combined with imipenem (4 μg/mL) for bacteriostasis” value [9]?
**A.** The value was “C (C: 16-128 μg/mL)”.

**Q.** What about the “The minimum concentration of test compounds combined with imipenem (4 μg/mL) for bacteriostasis” value [10] of the same compound?
**A.** The value was “A (A: <8 μg/mL)”.

**Q.** What about the “The minimum concentration of test compounds combined with imipenem (4 μg/mL) for bacteriostasis” value [11] of the same compound?
**A.** Its value is “A (A: <8 μg/mL)”.

**Q.** And the “The minimum concentration of test compounds combined with imipenem (4 μg/mL) for bacteriostasis” value [12]?
**A.** The value was “A (A: <8 μg/mL)”.

**Q.** And the “The minimum concentration of test compounds combined with imipenem (4 μg/mL) for bacteriostasis” value [13]?
**A.** Its value is “A (A: <8 μg/mL)”.

**Q.** And the “The minimum concentration of test compounds combined with imipenem (4 μg/mL) for bacteriostasis” value [14]?
**A.** Its value is “A (A: <8 μg/mL)”.

**Q.** And the “The minimum concentration of test compounds combined with imipenem (4 μg/mL) for bacteriostasis” value [15]?
**A.** Its value is “A (A: <8 μg/mL)”.

**Q.** And the “The minimum concentration of test compounds combined with imipenem (4 μg/mL) for bacteriostasis” value [16]?
**A.** Its value is “A (A: <8 μg/mL)”.

**Q.** `N=C(N)NC[C@H](O)c1cc([C@@H]2CC3(CC3)[C@@H]3CN2C(=O)N3OS(=O)(=O)O)no1` [Example 39, (1R,4S)-4-(5-((S)-2-guanidyl-1-hydroxyethyl)isoxazol-3-yl)-6-oxo-5,7-diazaspiro [bicyclo[3.2.1]octane-2,1′-cyclopropan]-7-yl sulfate] was tested. Which “The minimum concentration of test compounds combined with ceftazidime (8 μg/mL) for bacteriostasis” value [1] did it give?
**A.** The value was “C (C: 16-128 μg/mL)”.

**Q.** What about the “The minimum concentration of test compounds combined with ceftazidime (8 μg/mL) for bacteriostasis” value [2] of the same compound?
**A.** The value was “A (A: <8 μg/mL)”.

**Q.** And the “The minimum concentration of test compounds combined with ceftazidime (8 μg/mL) for bacteriostasis” value [3]?
**A.** The value was “A (A: <8 μg/mL)”.

**Q.** And the “The minimum concentration of test compounds combined with ceftazidime (8 μg/mL) for bacteriostasis” value [4]?
**A.** The value was “A (A: <8 μg/mL)”.

**Q.** What about the “The minimum concentration of test compounds combined with ceftazidime (8 μg/mL) for bacteriostasis” value [5] of the same compound?
**A.** Its value is “A (A: <8 μg/mL)”.

**Q.** What about the “The minimum concentration of test compounds combined with ceftazidime (8 μg/mL) for bacteriostasis” value [6] of the same compound?
**A.** The value was “A (A: <8 μg/mL)”.

**Q.** What about the “The minimum concentration of test compounds combined with ceftazidime (8 μg/mL) for bacteriostasis” value [7] of the same compound?
**A.** The value was “A (A: <8 μg/mL)”.

**Q.** And the “The minimum concentration of test compounds combined with ceftazidime (8 μg/mL) for bacteriostasis” value [8]?
**A.** Its value is “B (B: 8-16 μg/mL)”.

**Q.** And the “The minimum concentration of test compounds combined with imipenem (4 μg/mL) for bacteriostasis” value [9]?
**A.** Its value is “B (B: 8-16 μg/mL)”.

**Q.** What about the “The minimum concentration of test compounds combined with imipenem (4 μg/mL) for bacteriostasis” value [10] of the same compound?
**A.** Its value is “A (A: <8 μg/mL)”.

**Q.** What about the “The minimum concentration of test compounds combined with imipenem (4 μg/mL) for bacteriostasis” value [11] of the same compound?
**A.** The value was “A (A: <8 μg/mL)”.

**Q.** And the “The minimum concentration of test compounds combined with imipenem (4 μg/mL) for bacteriostasis” value [12]?
**A.** The value was “A (A: <8 μg/mL)”.

**Q.** And the “The minimum concentration of test compounds combined with imipenem (4 μg/mL) for bacteriostasis” value [13]?
**A.** The value was “A (A: <8 μg/mL)”.

**Q.** And the “The minimum concentration of test compounds combined with imipenem (4 μg/mL) for bacteriostasis” value [14]?
**A.** Its value is “A (A: <8 μg/mL)”.

**Q.** What about the “The minimum concentration of test compounds combined with imipenem (4 μg/mL) for bacteriostasis” value [15] of the same compound?
**A.** Its value is “A (A: <8 μg/mL)”.

**Q.** What about the “The minimum concentration of test compounds combined with imipenem (4 μg/mL) for bacteriostasis” value [16] of the same compound?
**A.** The value was “A (A: <8 μg/mL)”.

— US11078202B2, “β-lactamase inhibitor and use thereof” (priority 2018, dated 2021)
